# Measured values from the supplement of paper PMC10307832.
# How the values were obtained:
# Assay in all cases: relative viability (nuclei count vs DMSO), 5 days (fraction); higher = more cells survive
# PC-3 [JPC-3] = system: PC-3 [JPC-3]
# Summary of the method: (§1)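 Values are medians from duplicate plates. Each reflects relative viability, defined as the nuclei count of treated wells over that of vehicle wells. Lung cancer cell lines in 1536-well plates were pin-tool dosed one day after seeding with one drug alone or with a fixed anchor-drug dose plus five library-drug doses (not always all listed) in √10 steps, then fixed, stained and imaged at 4× after 5 days.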
# NCI-H3122 = system: NCI-H3122
# Summary of the method: as §1
# COR-L23 = system: COR-L23
# Summary of the method: as §1
# SK-LU-1 = system: SK-LU-1
# Summary of the method: as §1
# A-427 = system: A-427
# Summary of the method: as §1
# LK-2 = system: LK-2
# Summary of the method: as §1
# HOP-62 = system: HOP-62
# Summary of the method: as §1
# SK-MES-1 = system: SK-MES-1
# Summary of the method: as §1
# NCI-H1993 = system: NCI-H1993
# Summary of the method: as §1
# NCI-H1944 = system: NCI-H1944
# Summary of the method: as §1
# NCI-H2228 = system: NCI-H2228
# Summary of the method: as §1
# HARA = system: HARA
# Summary of the method: as §1
# SW 1573 = system: SW 1573
# Summary of the method: as §1
# LXF-289 = system: LXF-289
# Summary of the method: as §1
# NCI-H727 = system: NCI-H727
# Summary of the method: as §1
# NCI-H1792 = system: NCI-H1792
# Summary of the method: as §1
# ABC-1 = system: ABC-1
# Summary of the method: as §1
# NCI-H596 = system: NCI-H596
# Summary of the method: as §1
# NCI-H2170 = system: NCI-H2170
# Summary of the method: as §1
# EMC-BAC-2 = system: EMC-BAC-2
# Summary of the method: as §1
# NCI-H2009 = system: NCI-H2009
# Summary of the method: as §1
structure (smiles),measurement,setting,value
NC(=O)Nc1cc(-c2cccc(F)c2)sc1C(=O)N[C@H]1CCCNC1 [AZD7762] + C[C@@H](Oc1cc(-c2cnn(C3CCNCC3)c2)cnc1N)c1c(Cl)ccc(F)c1Cl [Crizotinib] (partner 1 µM),relative viability,PC-3 [JPC-3]; first compound 0.01 µM,0.999
same,relative viability,PC-3 [JPC-3]; first compound 0.03162 µM,0.962
same,relative viability,PC-3 [JPC-3]; first compound 0.1 µM,1.01
same,relative viability,PC-3 [JPC-3]; first compound 0.3162 µM,1.02
same,relative viability,PC-3 [JPC-3]; first compound 1 µM,0.903
same,relative viability,NCI-H3122; first compound 0.01 µM,0.266
same,relative viability,NCI-H3122; first compound 0.03162 µM,0.296
same,relative viability,NCI-H3122; first compound 0.1 µM,0.329
same,relative viability,NCI-H3122; first compound 0.3162 µM,0.258
same,relative viability,NCI-H3122; first compound 1 µM,0.283
same,relative viability,COR-L23; first compound 0.01 µM,0.775
same,relative viability,COR-L23; first compound 0.03162 µM,0.656
same,relative viability,COR-L23; first compound 0.1 µM,0.616
same,relative viability,COR-L23; first compound 0.3162 µM,0.45
same,relative viability,COR-L23; first compound 1 µM,0.117
same,relative viability,SK-LU-1; first compound 0.01 µM,0.991
same,relative viability,SK-LU-1; first compound 0.03162 µM,0.714
same,relative viability,SK-LU-1; first compound 0.1 µM,0.38
same,relative viability,SK-LU-1; first compound 0.3162 µM,0.226
same,relative viability,SK-LU-1; first compound 1 µM,0.285
same,relative viability,A-427; first compound 0.01 µM,1.01
same,relative viability,A-427; first compound 0.03162 µM,0.869
same,relative viability,A-427; first compound 0.1 µM,0.992
same,relative viability,A-427; first compound 0.3162 µM,0.815
same,relative viability,A-427; first compound 1 µM,0.386
same,relative viability,LK-2; first compound 0.01 µM,0.203
same,relative viability,LK-2; first compound 0.03162 µM,0.221
same,relative viability,LK-2; first compound 0.1 µM,0.225
same,relative viability,LK-2; first compound 0.3162 µM,0.203
same,relative viability,LK-2; first compound 1 µM,0.228
same,relative viability,HOP-62; first compound 0.01 µM,0.786
same,relative viability,HOP-62; first compound 0.03162 µM,1.03
same,relative viability,HOP-62; first compound 0.1 µM,1.17
same,relative viability,HOP-62; first compound 0.3162 µM,1.1
same,relative viability,HOP-62; first compound 1 µM,1.16
same,relative viability,SK-MES-1; first compound 0.01 µM,1.05
same,relative viability,SK-MES-1; first compound 0.03162 µM,0.966
same,relative viability,SK-MES-1; first compound 0.1 µM,1.08
same,relative viability,SK-MES-1; first compound 0.3162 µM,0.999
same,relative viability,SK-MES-1; first compound 1 µM,0.614
same,relative viability,NCI-H1993; first compound 0.01 µM,0.952
same,relative viability,NCI-H1993; first compound 0.03162 µM,0.957
same,relative viability,NCI-H1993; first compound 0.1 µM,0.729
same,relative viability,NCI-H1993; first compound 0.3162 µM,0.873
same,relative viability,NCI-H1993; first compound 1 µM,0.808
same,relative viability,NCI-H1944; first compound 0.01 µM,1.29
same,relative viability,NCI-H1944; first compound 0.03162 µM,1.22
same,relative viability,NCI-H1944; first compound 0.1 µM,1.2
same,relative viability,NCI-H1944; first compound 0.3162 µM,1.19
same,relative viability,NCI-H1944; first compound 1 µM,0.918
same,relative viability,NCI-H2228; first compound 0.01 µM,0.423
same,relative viability,NCI-H2228; first compound 0.03162 µM,0.588
same,relative viability,NCI-H2228; first compound 0.1 µM,0.461
same,relative viability,NCI-H2228; first compound 0.3162 µM,0.436
same,relative viability,NCI-H2228; first compound 1 µM,0.208
same,relative viability,HARA; first compound 0.01 µM,1.11
same,relative viability,HARA; first compound 0.03162 µM,0.98
same,relative viability,HARA; first compound 0.1 µM,0.894
same,relative viability,HARA; first compound 0.3162 µM,1.01
same,relative viability,HARA; first compound 1 µM,0.25
same,relative viability,SW 1573; first compound 0.01 µM,0.976
same,relative viability,SW 1573; first compound 0.03162 µM,0.879
same,relative viability,SW 1573; first compound 0.1 µM,0.907
same,relative viability,SW 1573; first compound 0.3162 µM,0.934
same,relative viability,SW 1573; first compound 1 µM,0.738
same,relative viability,LXF-289; first compound 0.01 µM,0.788
same,relative viability,LXF-289; first compound 0.03162 µM,0.8
same,relative viability,LXF-289; first compound 0.1 µM,0.828
same,relative viability,LXF-289; first compound 0.3162 µM,0.864
same,relative viability,LXF-289; first compound 1 µM,0.816
same,relative viability,NCI-H727; first compound 0.01 µM,0.984
same,relative viability,NCI-H727; first compound 0.03162 µM,0.865
same,relative viability,NCI-H727; first compound 0.1 µM,0.758
same,relative viability,NCI-H727; first compound 0.3162 µM,0.519
same,relative viability,NCI-H727; first compound 1 µM,0.259
same,relative viability,NCI-H1792; first compound 0.01 µM,1.06
same,relative viability,NCI-H1792; first compound 0.03162 µM,1
same,relative viability,NCI-H1792; first compound 0.1 µM,0.975
same,relative viability,NCI-H1792; first compound 0.3162 µM,0.646
same,relative viability,NCI-H1792; first compound 1 µM,1.12
same,relative viability,ABC-1; first compound 0.01 µM,1.1
same,relative viability,ABC-1; first compound 0.03162 µM,1.56
same,relative viability,ABC-1; first compound 0.1 µM,0.842
same,relative viability,ABC-1; first compound 0.3162 µM,0.49
same,relative viability,ABC-1; first compound 1 µM,0.13
same,relative viability,NCI-H596; first compound 0.01 µM,0.991
same,relative viability,NCI-H596; first compound 0.03162 µM,0.942
same,relative viability,NCI-H596; first compound 0.1 µM,1.02
same,relative viability,NCI-H596; first compound 0.3162 µM,1.11
same,relative viability,NCI-H596; first compound 1 µM,0.863
same,relative viability,NCI-H2170; first compound 0.01 µM,1.2
same,relative viability,NCI-H2170; first compound 0.03162 µM,1.26
same,relative viability,NCI-H2170; first compound 0.1 µM,1.24
same,relative viability,NCI-H2170; first compound 0.3162 µM,1.28
same,relative viability,NCI-H2170; first compound 1 µM,1
same,relative viability,EMC-BAC-2; first compound 0.01 µM,0.852
same,relative viability,EMC-BAC-2; first compound 0.03162 µM,0.718
same,relative viability,EMC-BAC-2; first compound 0.1 µM,0.777
same,relative viability,EMC-BAC-2; first compound 0.3162 µM,0.797
same,relative viability,EMC-BAC-2; first compound 1 µM,0.706
same,relative viability,NCI-H2009; first compound 0.01 µM,1.04
same,relative viability,NCI-H2009; first compound 0.03162 µM,1.13
same,relative viability,NCI-H2009; first compound 0.1 µM,1.07
same,relative viability,NCI-H2009; first compound 0.3162 µM,0.954
same,relative viability,NCI-H2009; first compound 1 µM,0.38
